The values that follow come from patent publication US20230060873A1, “COMPOUNDS AND METHODS FOR FORMING ION CHANNELS IN BIOLOGICAL MEMBRANES” (Washington University, priority 2021, published 2023).

The structures appear in SMILES notation.

The subject of the experiment is B. subtilis cells. As to the kind of experiment: Lactate dehydrogenase release (resofurin fluorescence), lariat ether. Format: cell-based, Bacillus subtilis. To be noted: 2 μM, 37° C, lithium lactate/NAD+ solution. The source says:
A well-established assay was utilized to measure cell lysis by monitoring the release of the enzyme lactate dehydrogenase (LDH), which is ubiquitous in the cytoplasm of all cell types. The tetrameric active form of LDH catalyzes the final step of the glycolysis in B. subtilis and has a molecular weight of approximately 146 kDa in, with a nearly globular shape of an approximated radius of 80 Å (PDB ID: 3PQD). […] LDH couples two redox reactions, the first involving the interconversion of pyruvate (oxidized) and L-lactate (reduced) and the second, the interconversion of NAD^+ (oxidized) and NADH (reduced). The NADH oxidation can be coupled to the diaphorase-catalyzed […] of resazurin to resofurin, which is highly fluorescent. When the concentrations of L-lactate, NAD^+, diaphorase, and resazurin are saturated, the rate of increase in the resofurin fluorescence is limited only by the amount of available LDH in the medium.
To prepare the experiment, a 2-mL liquid culture of B. subtilis cells was grown at 37° C. in media until OD600=0.600, and then collected by centrifugation at 2000 rpm during 3 min. […] Fluorescence intensity was recorded each second using a Horiba Fluoromax 4 spectrometer (excitation wavelength=550 nm; emission wavelength=583 nm). […] To normalize, the fluorescence was divided by the fluorescence level just before timepoint t4. […]

Consider `CCCCCCCCCCN1CCOCCOCCN(CCCCCCCCCC)CCOCCOCC1` [LEC10, Didecyl diaza(18-crown-6)], for which the “resofurin fluorescence (LDH release)” value is “rapid rise in the fluorescence”.
